Laboratory results as given in patent publication US20240009149A1, “NON-AQUEOUS GEL COMPOSITION” (Acousia Therapeutics GmbH, priority 2020, published 2024).
One block for each compound: values may come before it.

Assays:
Format in all cases: physicochemical
[1] = solubility in water at room temperature; settings: for Biopharmaceutics Classification System class: classified from low water solubility; for solubility: water, 24 °C, 22-26° C.
[2] = Particle Size Distribution (Malvern MasterSizer, laser diffraction)
Description: The mean particle size distribution is preferably obtained by laser diffraction. During a laser diffraction measurement a laser beam passes through a dispersed particulate sample and the angular variation in intensity of the scattered light is measured. Large particles scatter light at small angles relative to the laser beam and small particles scatter light at large angles. The angular scattering intensity data is then analyzed to calculate the size of the particles that created the scattering pattern using the Mie theory of light scattering. The particle size is reported as a volume equivalent sphere diameter. The folded optical design in the Mastersizer 3000 (from Malvern Panalytical), which was in particular used for the measurements provides a particle size measurement range from 10 nm up to 3.5 mm using a single optical measurement path. The Mastersizer 3000 uses a sequential combination of measurements with red and blue light sources to measure across the entire particle size range.
In some embodiments, the PSD (Particle Size Distribution) of the pharmaceutically active agent was measured with a Malvern MasterSizer 2000 or 3000 (in water as dispersion medium, stirrer speed 1500 rpm, Mie presentation) to give the following results (table 11). […] Some of the grinded batches are reported with the full PSD profile in FIG. 5: […]

[3] = impurity profile by HPLC prior and after gamma irradiation
[4] = FIG. 5 lower illustration, micronized sample, jet mill
[5] = FIG. 5 middle illustration, manual grinded sample
[6] = FIG. 5 upper illustration, manual grinded sample
[7] = Gamma irradiated at 49.6 KGy under dry ice

Biopharmaceutics Classification System class [1]: BCS class II | solubility [1]: < 1000 µg/mL
SMILES: O=C(NCc1cccc(S(F)(F)(F)(F)F)c1)[C@H]1C[C@@H]2CC[C@H]1C2 (racemic) [Compound A, (1SR,2SR,4RS)-N-(3-(pentafluoro-λ6-sulfanyl)benzyl)bicyclo[2.2.1]heptane-2-carboxamide]

d10 [2, 4]: 3.4 microns | d50 [2, 4]: 12.4 microns | d90 [2, 4]: 26.3 microns | d10 [2, 5]: 6.5 microns | d50 [2, 5]: 32 microns | d90 [2, 5]: 72 microns | d10 [2, 6]: 4.4 microns | d50 [2, 6]: 18 microns | d90 [2, 6]: 44 microns | PSD of the active ingredient in the non-aqueous gel composition ([2]; in the gel versus after grinding): remained unchanged | *Imp. 8. rel.tR = 0.95 ([3]; Gamma irradiated at 49.6 KGy): 3.29 Area % | Imp. 1. rel.tR = 0.22 ([3]; Gamma irradiated at 49.6 KGy): 0.11 Area % | Imp. 2. rel.tR = 0.37 ([3]; Gamma irradiated at 49.6 KGy): 0.11 Area % | Imp. 3. rel.tR = 0.48 ([3]; Gamma irradiated at 49.6 KGy): 0.24 Area % | Imp. 4. rel.tR = 0.52 ([3]; Gamma irradiated at 49.6 KGy): 0.12 Area % | Imp. 5. rel.tR = 0.54 ([3]; Gamma irradiated at 49.6 KGy): 0.08 Area % | Imp. 6. rel.tR = 0.58 ([3]; Gamma irradiated at 49.6 KGy): 0.14 Area % | Imp. 7. rel.tR = 0.71 ([3]; Gamma irradiated at 49.6 KGy): 0.39 Area % | Imp. 9. rel.tR = 1.27 ([3]; Gamma irradiated at 49.6 KGy): 0.32 Area % | Imp. 10. rel.tR = 1.80 ([3]; Gamma irradiated at 49.6 KGy): 0.06 Area % | Sum of impurities ([3]; Gamma irradiated at 49.6 KGy): 4.86 Area % | impurity Increase compared to initial ([3]; Gamma irradiated at 49.6 KGy): +1.25 Area % | *Imp. 8. rel.tR = 0.95 [3, 7]: 3.35 Area % | Imp. 1. rel.tR = 0.22 [3, 7]: 0.23 Area % | Imp. 2. rel.tR = 0.37 [3, 7]: 0.03 Area % | Imp. 3. rel.tR = 0.48 [3, 7]: 0.12 Area % | Imp. 4. rel.tR = 0.52 [3, 7]: 0.12 Area % | Imp. 5. rel.tR = 0.54 [3, 7]: 0.05 Area % | Imp. 6. rel.tR = 0.58 [3, 7]: 0.15 Area % | Imp. 7. rel.tR = 0.71 [3, 7]: 0.34 Area % | Imp. 9. rel.tR = 1.27 [3, 7]: 0.20 Area % | Sum of impurities [3, 7]: 4.59 Area % | impurity Increase compared to initial [3, 7]: +0.98 Area % | *Imp. 8. rel.tR = 0.95 ([3]; Initial API): 3.48 Area % | Imp. 3. rel.tR = 0.48 ([3]; Initial API): 0.13 Area % | Imp. 4. rel.tR = 0.52 ([3]; Initial API): <0.05 Area % | Imp. 7. rel.tR = 0.71 ([3]; Initial API): <0.05 Area % | Sum of impurities ([3]; Initial API): 3.61 Area % | effect of gamma irradiation on the quality of the active ingredient ([3]; standard conditions, dry ice used for cooling): only minor effects | Biopharmaceutics Classification System class [1]: BCS class II | solubility [1]: < 1000 µg/mL
SMILES: O=C(NCc1cccc(S(F)(F)(F)(F)F)c1)[C@H]1C[C@@H]2CC[C@H]1C2 [Compound B, (1S,2S,4R)-N-(3-(pentafluoro-λ6-sulfaneyl)benzyl)bicyclo[2.2.1]heptane-2-carboxamide]
